Assay results published in article PMC5770468, “Cardiac glycoside/aglycones inhibit HIV-1 gene expression by a mechanism requiring MEK1/2-ERK1/2 signaling” (Scientific Reports, 2018).

Experiments:
clinical strains of HIV = test system: clinical strains of HIV; set-up: method as in PMID 23555254, PMID 17706876; conditions: cited from earlier work
[1] = test system: host alternative RNA splicing; set-up: method as in PMID 22456266; conditions: of 8,175 analyzed, cited from earlier work
HIV-infected PBMCs = test: Ex vivo therapeutic index (CC50/IC50) in HIV-infected PBMCs; format: cell-based, human; conditions: CC50/IC50, day 14, HIV-infected PBMCs
Excerpt: Without median toxic dose (TD50) and half-maximal effective concentration (EC50) data available to calculate TIs (in vivo) from HIV patients treated with CSs, we determined the following TIs for each cell type treated with a CS (summarized in Supplementary Table S1): in vitro TIs from HeLa rtTA-HIV-ΔMls cells using CC20/IC50 (instead of CC50/IC50), in vitro TIs from 24ST1NLESG cells using CC50/IC50, and ex vivo TIs from HIV-infected PBMCs using CC50/IC50 (at day 14 of culture approximated from available cell viability trends for CC50s of Supplementary Fig. S13 and inferred near maximal IC50s).
Supplementary Figure S13. Estimation of the approximate ex vivo therapeutic indices of several
CSs. Ex vivo TIs were calculated from CC50/IC50 from day 14 of culture of HIV-infected patient PBMCs treated with CSs. CC50s were estimated/extrapolated from data points by their trends (dashed arrows) from XTT assays of cell viability (gray circles) and their inferred near maximal IC50s estimated from results on HIV-1 p24CA (Gag) production (black circles) from Figures 2f-h and some data points published on digoxin [Wong et al. (2013). PLoS Pathog 9(3):e1003241]. […]

SRp20/SRSF3 = test: Immunoblot of SRp20 in HeLa rtTA-HIV-ΔMls cells; format: cell-based, human; conditions: 3 d with ~IC50s of CSs
Excerpt: Figure 4 CSs suppress HIV-1 gene expression by altering viral RNA processing. […] (a,b) CSs induce oversplicing of HIV-1 RNAs (n ≥ 3, mean, s.e.m.). (a) Diagram of the primer positions (arrow heads) used for qRT-PCR. (b) Graph of the relative amount of US (black), SS (white), and MS (gray) HIV-1 RNAs in cells treated with various CSs. (c) Nuclear export of HIV-1 US RNAs in cells is altered by CSs (representative n ≥ 4). HIV-1 US RNAs were localized by FISH after treating HeLa rtTA-HIV(Gag-GFP) cells as described above but with ~IC90s of CSs. Nuclei were stained by DAPI and images captured at 630 × magnification. […] SRp20, Tra2β, and tubulin were analyzed by immunoblot of HeLa rtTA-HIV-ΔMls cells treated as described above except cells of this representative blot were treated 3 d with ~IC50s of CSs. […]
To monitor HIV-1 gene expression or replication, Gag release into cell culture supernatants were assayed by ELISA using a p24^CA antigen capture assay kit (AIDS & Cancer Virus Program, NCI-Frederick, Frederick, MD USA). […] For analysis of HIV-1 and SR protein expression (and phosphorylation states with calf intestinal alkaline phosphatase treatments), cells were lysed and analyzed by western blot as previously outlined. […] Activation of MAPKs was determined by western blot quantitation and calculation of phospho/total protein levels. […]

SMILES: C[C@H]1O[C@@H](O[C@H]2[C@@H](O)C[C@H](O[C@H]3[C@@H](O)C[C@H](O[C@H]4CC[C@@]5(C)[C@H](CC[C@@H]6[C@@H]5C[C@@H](O)[C@]5(C)[C@@H](C7=CC(=O)OC7)CC[C@]65O)C4)O[C@@H]3C)O[C@@H]2C)C[C@H](O)[C@@H]1O [Digoxin]
- effective ex vivo concentration, fold below serum concentration of patients treated for heart conditions (digoxin) (clinical strains of HIV): 2–6 fold

SMILES: C[C@H]1O[C@@H](O[C@H]2[C@@H](O)C[C@H](O[C@H]3[C@@H](O)C[C@H](O[C@H]4CC[C@@]5(C)[C@H](CC[C@@H]6[C@@H]5CC[C@]5(C)[C@@H](C7=CC(=O)OC7)CC[C@]65O)C4)O[C@@H]3C)O[C@@H]2C)C[C@H](O)[C@@H]1O [Digitoxin]
- host splicing events affected ([1]; q-value = 0, sepscore ≥ 1.0): 1681 events
- host splicing events affected, share of analyzed [1]: ~ 20.6%

SMILES: C[C@]12CC[C@H](O)C[C@H]1CC[C@@H]1[C@@H]2CC[C@]2(C)[C@@H](C3=CC(=O)OC3)CC[C@]12O [Digitoxigenin]
- better approximate ex vivo TI than FDA-approved counterparts (HIV-infected PBMCs): ≥ 1.5 fold
- mobility of SRp20 (SRp20/SRSF3): increased the mobility
